This passage reports TGI results from PubChem BioAssay (NCI).

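1) Cells in 96-well plates. 2) Compound, 48 h, 5 concentrations. 3) Linear interpolation between surrounding doses. 4) Unreached endpoint = highest concentration. TGI denotes the concentration required for complete inhibition of growth.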

Test systems include CCRF-CEM leukemia; EKVX NSCLC; KM12 colon; LOX IMVI melanoma; MCF7 breast; RXF 393 renal; SK-MEL-2 melanoma; SK-OV-3 ovarian; SR leukemia; SW-620 colon; U251 CNS; UACC-62 melanoma.
Test in all cases: inhibition of tumour cell growth, NCI panel, 48 h

Regarding `O=C(O)CSc1nnc(CCCCCCCCc2nnc(SCC(=O)O)o2)o1`, the TGI with CCRF-CEM leukemia, with EKVX NSCLC, with KM12 colon, in the assay on LOX IMVI melanoma, with MCF7 breast and in the assay on RXF 393 renal was over 100 µM each time. Further, the TGI in the assay on SK-MEL-2 melanoma, in the assay on SK-OV-3 ovarian, in the assay on SR leukemia, in the assay with SW-620 colon, in the assay on U251 CNS and with UACC-62 melanoma was over 100 µM each time.
Consider `O=c1[nH]c(=O)n(C2OC(CO)C(O)C2O)cc1OCCc1ccccc1` (centres undefined), for which the TGI in the assay on CCRF-CEM leukemia, with EKVX NSCLC, in the assay with KM12 colon, with LOX IMVI melanoma, in the assay with MCF7 breast and with RXF 393 renal was over 100 µM in each case. Further, the TGI in the assay on SK-MEL-2 melanoma, with SK-OV-3 ovarian, in the assay on SR leukemia, with SW-620 colon and in the assay with UACC-62 melanoma was over 100 µM in each case.
As to `CC1(C)CCCCCC(C)(CCCCCCCCCCCO)C1=O` (centres undefined), the TGI in the assay with CCRF-CEM leukemia is 29.7 µM; with EKVX NSCLC, 32 µM; in the assay with KM12 colon, 32.7 µM; in the assay with LOX IMVI melanoma it was 28.7 µM; in the assay with MCF7 breast, 29.8 µM; with RXF 393 renal it was 31.4 µM. For the same compound, the TGI was determined as 30.4 µM with SK-MEL-2 melanoma; 31.7 µM in the assay with SK-OV-3 ovarian; 14.3 µM in the assay with SR leukemia; 32.9 µM with SW-620 colon; 31.1 µM in the assay with U251 CNS; 29.4 µM in the assay with UACC-62 melanoma.
For the compound `BrCCC[P+](c1ccccc1)(c1ccccc1)c1ccccc1`, the TGI in the assay with CCRF-CEM leukemia is over 100 µM; in the assay on EKVX NSCLC, over 100 µM; in the assay on KM12 colon it was 58.1 µM; with LOX IMVI melanoma it was 16.8 µM; in the assay with MCF7 breast, over 100 µM; with RXF 393 renal, 7.55 µM. In addition, the TGI with SK-MEL-2 melanoma was 82.2 µM; in the assay with SK-OV-3 ovarian it was over 100 µM; with SR leukemia, over 100 µM; in the assay with SW-620 colon, over 100 µM; with U251 CNS it was over 100 µM; with UACC-62 melanoma, 64.2 µM.
In the case of `COP(=O)(OC)C(O)/C=C(\Cl)c1ccc(Cl)cc1` (centres undefined), the TGI is 49 µM in the assay on CCRF-CEM leukemia; over 100 µM in the assay with EKVX NSCLC; over 100 µM in the assay on KM12 colon; 52.1 µM in the assay with LOX IMVI melanoma; over 100 µM with MCF7 breast; over 100 µM with RXF 393 renal. Also, the TGI with SK-MEL-2 melanoma is over 100 µM; with SK-OV-3 ovarian it was over 100 µM; in the assay on SR leukemia it was 59.1 µM; with SW-620 colon, over 100 µM; with U251 CNS, over 100 µM; in the assay on UACC-62 melanoma, over 100 µM.
In the case of `C=C(CN(C)C)C(=O)c1cc(C)ccc1C`, the TGI in the assay with CCRF-CEM leukemia was 1.37 µM; in the assay on EKVX NSCLC it was 55.3 µM; with KM12 colon, 38.3 µM; with LOX IMVI melanoma it was 13.8 µM; in the assay on MCF7 breast it was 11.5 µM; with RXF 393 renal, 9.52 µM. Also, the TGI with SK-MEL-2 melanoma worked out at 37.8 µM; in the assay with SK-OV-3 ovarian it was 33 µM; in the assay with SR leukemia, 6.63 µM; with SW-620 colon it was 5.96 µM; in the assay with U251 CNS it was 33.5 µM; in the assay on UACC-62 melanoma, 29.7 µM.
Turning to `COc1cc(C=Nc2ccc(S(N)(=O)=O)cc2)cc(OC)c1`, the TGI in the assay on CCRF-CEM leukemia, with EKVX NSCLC, with KM12 colon, in the assay on LOX IMVI melanoma, in the assay on MCF7 breast and in the assay with RXF 393 renal was over 50 µM each time. In addition, the TGI in the assay on SK-MEL-2 melanoma, with SK-OV-3 ovarian, with SR leukemia, with U251 CNS and with UACC-62 melanoma was over 50 µM in each case.
Turning to `O=Cc1[nH]c(=O)[nH]c(=O)c1CCl`, the TGI was over 85.8 µM in the assay with CCRF-CEM leukemia; over 100 µM with EKVX NSCLC; over 100 µM in the assay with KM12 colon; over 81.7 µM in the assay on LOX IMVI melanoma; over 100 µM in the assay with MCF7 breast; over 100 µM with RXF 393 renal. The TGI with SK-MEL-2 melanoma is over 100 µM; in the assay on SK-OV-3 ovarian, over 100 µM; with SR leukemia, 57.7 µM; in the assay with SW-620 colon it was over 100 µM; in the assay with U251 CNS, over 100 µM; with UACC-62 melanoma it was over 100 µM.
On to `COc1ccc(N=Nc2c(C)c(C#N)c(=S)n(C3OC(COC(C)=O)C(OC(C)=O)C(OC(C)=O)C3OC(C)=O)c2-c2ccccc2)cc1` (centres undefined), for which the TGI with CCRF-CEM leukemia is over 100 µM; with KM12 colon, 20.6 µM; in the assay with LOX IMVI melanoma, 17.9 µM; with MCF7 breast, 17.5 µM; in the assay on RXF 393 renal it was 23.7 µM; with SK-MEL-2 melanoma, 22.8 µM. Moreover, the figures for the TGI with SR leukemia, in the assay with SW-620 colon and in the assay with U251 CNS were over 100 µM, 11.1 µM and 22.6 µM, respectively.
`COc1ccc(/C=C(\C(=O)OCC(C)C)c2ccc(OC)c(OC)c2)cc1OC`: the TGI in the assay with CCRF-CEM leukemia, in the assay on EKVX NSCLC, with LOX IMVI melanoma, with MCF7 breast, in the assay on RXF 393 renal and in the assay with SK-MEL-2 melanoma was over 100 µM each time. In addition, the TGI in the assay with SR leukemia, in the assay on SW-620 colon, with U251 CNS and with UACC-62 melanoma was over 100 µM throughout.
As to `O=C1/C(=C/c2ccc(Cl)cc2)N=C(c2ccccc2)N1C1Nc2cc3c(cc2S1)NC(N1C(=O)/C(=C/c2ccc(Cl)cc2)N=C1c1ccccc1)S3` (centres undefined), the TGI in the assay with CCRF-CEM leukemia, in the assay with EKVX NSCLC, with KM12 colon, with LOX IMVI melanoma, in the assay with MCF7 breast and with RXF 393 renal was over 100 µM throughout. In addition, the TGI in the assay on SK-MEL-2 melanoma is over 100 µM; in the assay on SK-OV-3 ovarian, over 100 µM; in the assay with SR leukemia it was 74.1 µM; in the assay on SW-620 colon, over 100 µM; with U251 CNS, over 100 µM.
`O=c1oc2cccnc2n1CCN1CCN(c2ccc(Oc3ccccc3)cc2)CC1`: the TGI in the assay on CCRF-CEM leukemia, in the assay with EKVX NSCLC, in the assay with LOX IMVI melanoma, in the assay on MCF7 breast, in the assay on RXF 393 renal and in the assay on SK-MEL-2 melanoma was over 100 µM in each case. For the same compound, the TGI in the assay on SK-OV-3 ovarian, in the assay with SR leukemia, in the assay on SW-620 colon and with U251 CNS was over 100 µM throughout.
